Experiment [1] deals with Sp2/0 cells. As to the kind of experiment: Effect of replacement compounds on the growth of Sp2/0 cells in CD Hybridoma medium without transferrin, three passages. The format is cell-based. Conditions: third passage.
Experiment [2] concerns CHO cells. The experiment in a line: Effect of replacement compounds on the growth of CHO cells in CD CHO medium without transferrin, three passages. Conditions: third passage. The format is cell-based, Chinese hamster. The method in brief: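 CHO cells seeded at 1×10^5 viable cells/mL in transferrin-free CD CHO medium, 37 °C, 8% CO2, subcultured every 4 days for three passages. Compounds tested alone or complexed with ferric chloride or ferrous sulfate at 25, 50 and 100 μM; growth as mean percentage of the 5 μg/mL holo-transferrin control at the third passage, duplicate cultures.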

Experiment [3] has as its system 293 cells. The experiment in a line: Effect of replacement compounds on the growth of 293 cells in 293 SFM without transferrin, three passages. As to conditions: third passage, control 5 μg/mL human holo-transferrin. The format is cell-based, human.
Where [4] appears, read: 25 μM, control 5 μg/mL human holo-transferrin.
Where [5] appears, read: 25 μM, iron equimolar where combined.

For `CCc1occc(=O)c1O` [2-Ethyl-3-Hydroxy-4-Pyrone], the “mean percentage of control growth” value in experiment [1] (setting [4]) is 0 percentage of control growth; in experiment [1] (50 μM), 75 percentage of control growth; in experiment [1] (100 μM), 116 percentage of control growth; in experiment [2] (setting [4]) it was 9 percentage of control growth; in experiment [2] (50 μM), 60 percentage of control growth; in experiment [2] (100 μM) it was 113 percentage of control growth. The “mean percentage of control growth” value in experiment [3] (setting [5]) is on record as 59 percentage of control growth; in experiment [3] (50 μM), 120 percentage of control growth; in experiment [3] (100 μM), 126 percentage of control growth.

In the case of “Diethylenetriamine Penta-Acetic Acid•Ferrous Sulfate”, the “mean percentage of control growth” value in experiment [1] (setting [4]) is 54 percentage of control growth; in experiment [1] (50 μM), 90 percentage of control growth; in experiment [1] (100 μM) it was 91 percentage of control growth; in experiment [2] (setting [4]), 135 percentage of control growth; in experiment [2] (50 μM) it was 137 percentage of control growth; in experiment [2] (100 μM), 147 percentage of control growth. Also, the “mean percentage of control growth” value is reported as 77 percentage of control growth in experiment [3] (setting [5]), 107 percentage of control growth in experiment [3] (50 μM) and 85 percentage of control growth in experiment [3] (100 μM).

The values above are taken from US9879243B2, “Culture medium for cell growth and transfection” (LIFE TECHNOLOGIES CORPORATION, priority 2001, dated 2018).
